For this assay, the system named is T1, myrosinase of SuMy07.
T1 construct: gene beta-thioglucoside glucohydrolase; native enzyme purified from the marine isolate (ultrafiltration, ammonium sulfate, Superdex 200); two subunits of 65 kDa
Briefly: double-reciprocal plot of sinigrin hydrolysis. Particulars: pH 7.0, 25 °C. It is filed as biochemical, Pseudomonas oleovorans.

Molecules are shown by their SMILES.

A word on the Km: it is the concentration of substrate that gives half-maximal velocity. On to `C=CC/C(=N/OS(=O)(=O)O)S[C@@H]1O[C@H](CO)[C@@H](O)[C@H](O)[C@H]1O` [sinigrin hydrate], for which the Km stood at 1.4 mM.

The record behind these values is article PMC10195144, “Purification and characterization of a cold-active myrosinase from marine Pseudomonas oleovorans SuMy07” (Acta Biochimica et Biophysica Sinica, 2023).
